According to article PMC12211128, “Safety, tolerability, pharmacokinetic and pharmacodynamic effects of the muscarinic M1 positive allosteric modulator VU0467319 for Alzheimer’s disease: a single ascending-dose study in healthy participants” (Alzheimer's Research & Therapy, 2025):
Entries after “also recorded” stand apart in the source; their conditions may differ.

Assays:
Assay type in all cases: in vivo, human
[1] = tested on: healthy participants; assay: Auditory oddball ERP task; settings: for Auditory oddball P300 amplitude, targets vs standards, effect size d: post-dose session; for Mean amplitude over the parietal cortex, Auditory Oddball, Standard trials / Mean amplitude over the parietal cortex, Auditory Oddball, Target trials: mean (SD)
Procedure: Following the cognitive battery, an electrophysiology recording was set up. Visual and auditory ERPs were recorded using a 128-channel Geodesic sensor net (EGI, Inc., Eugene, OR; [37, 38]). The electrophysiological recording was sampled at 250 Hz with filters set at 0.1–100 Hz. During data collection, all electrodes were referenced to vertex (Cz). The recording session lasted approximately 30 min.
Auditory and visual oddball tasks were performed to assess attention in auditory and visual modalities. In the auditory task, a pair of two pure tones (single formant) at 1000 and 1500 Hz were the stimuli. In the visual task, the stimuli were a pair of letters (X & O). The assignment of stimuli to standard and target conditions (70% & 30% of the trials respectively), was counterbalanced across participants. Each participant was asked to press a different button using their preferred hand upon presentation of the standard and the target stimulus. On average, auditory and visual tasks lasted 6–7 min each.
ERP processing and Analysis: Single-trial ERPs were derived by extracting a 100-ms pre-stimulus baseline and a 900 ms post-stimulus interval. The trials were screened for ocular and motor artifacts using automated procedures with standard threshold settings (NetStation 4.4, EGI, Inc) and verified using manual review. Data for electrodes characterized by consistent artifacts were replaced using the spherical spline interpolation algorithm. If more than 15 electrodes within a trial were noisy, the entire trial was discarded. Remaining artifact-free trials were averaged separately for each condition (standard vs. oddball; novel vs. repeated images), re-referenced to an average reference, and baseline corrected. For individual participant’s data to be included in the analysis, each condition average had to have a minimum of 10 artifact-free trials.
Statistical analysis focused on a priori selected electrode clusters corresponding to frontal, central, and parietal midline locations (Fz, Cz, Pz in 10–20 notation), confirmed using spatial principal components analysis. Mean amplitudes were calculated within 250–400 ms (frontal P3a), 300–500 ms (parietal P300), and 500–800 ms (parietal P600) temporal windows. These a-priori selected windows were confirmed using temporal principal components analysis.
Analyses for the auditory and visual oddball ERPs focused on the parietal (P300) and frontal (P3a) responses to standard and target stimuli. Differences in the amplitude, latency, and scalp topography of the responses were examined. […] For the incidental memory paradigm, differences in the mean amplitude of the parietal P300/P600 responses to repeated vs. novel presentations. The amplitude of the parietal P300/P600 waveform measures stimulus recognition. A larger positive amplitude for repeated compared to novel images indicates spontaneous formation of a memory trace.
Auditory and visual oddball tasks were performed to assess attention in auditory and visual modalities (Comerchero & Polich, 1999; Polich, 2007). In the auditory task, a pair of two pure tones (single formant) at 1000 and 1500 Hz were the stimuli. Tones were equated in duration (300 ms) and rise/decay times. Tones were presented at 75 dB SPL (measured at the ear) through a speaker positioned 1 meter in front of the participant. In the visual task, the stimuli were a pair of letters (X & O). All stimuli were presented in random order for 500 ms in the center of a computer monitor positioned 1 meter in front of the participant. For both auditory and visual tasks, 200 trials were presented with the inter-stimulus interval varying randomly between 1000-1300 ms to prevent habituation to stimulus onset. The assignment of stimuli to standard and target conditions (70% & 30% of the trials respectively), was counterbalanced across participants. […]

[2] = tested on: healthy participants; assay: Clinical laboratory parameters; settings: food effect study, 120 mg; 72 h post-dose, closer to normal by 144 h
Procedure: (§1) Safety and tolerability were assessed throughout the study via treatment emergent adverse event (TEAE) monitoring, vital signs (blood pressure, pulse rate, respiration rate, oral temperature), physical examinations, 12-lead ECGs, and clinical laboratory parameters including complete blood count (CBC), coagulation, hematology, clinical chemistry assessments, and urinalysis. Safety laboratory tests were drawn at pre-dose and at 5, 24, 36 and 144-hours post-dose for 60–400 mg Cohorts; and at 24, 48, 72 and 144-hours post-dose for the 600 mg and Food Effect Cohort. ECG assessments were conducted at pre-dose and at 1, 2, 3, 5, 9, 24, 36 and 144-hours post-dose for 60–400 mg Cohorts; and at 2, 3, 5, 9, 24, 36, 72 and 144-hours post-dose for the 600 mg and Food Effect Cohort. All adverse events (AEs) were assessed by the investigator for severity and relationship to study medication or study procedures.

[3] = tested on: healthy participants; assay: Treatment emergent adverse event (TEAE) monitoring
Procedure: as §1
All AEs were coded using the Medical Dictionary for Regulatory Activities (MedDRA) version 22.0. All AEs were listed, and the emergence of TEAEs were categorized by body system affected and analyzed to determine whether they were related to treatment. Analysis of TEAEs for VU319 vs. Placebo were completed using Fisher’s Exact Test. Assessment of the grade of toxicity or relation to the study drug for each adverse event was determined by the Investigator. Changes in vital signs, physical examination, and laboratory tests were collected. Changes in vital signs from pre-dose to 48 h post-dose were placed into 10-time bins and assessed using mixed-measures ANOVA with the time bins as the within-subjects factor and dose as the between-subjects factor. To assess changes is QT analyses with respect to VU319 concentration, we calculated the maximal change in QTcF from baseline for each participant. We assessed the relationship between these maximal changes from baseline with the participant’s Cmax using Pearson correlations. Outlier QTcF values (> 450 ms) were also assessed against PK concentrations to examine it there was any relationship using Pearson correlations. Analyses of safety data was completed by SAS version 9.4.

[4] = VU319 120 mg, fasting, post-drug session, n = 9
[5] = VU319 120 mg, fasting, pre-drug session, n = 9
[6] = VU319 120 mg, fed, post-drug session, n = 9
[7] = VU319 120 mg, fed, pre-drug session, n = 9

In the case of `Cn1cc2c(-c3cc(F)c(CN4Cc5ncccc5C4=O)c(F)c3)cccc2n1` [VU319], the “Auditory oddball parietal amplitude, target vs standard, post- vs pre-dose, effect size d” value ([1]; 60 mg, p = 0.002) is reported as 1.32, the “Auditory oddball parietal amplitude, target vs standard, post- vs pre-dose, effect size d” value ([1]; 120 mg, SAD, p = 0.18) is reported as 0.64 and the “Auditory oddball P300 amplitude, targets vs standards, effect size d” value ([1]; 120 mg, fasted, p = 0.033) is reported as 0.8. The “Auditory oddball P300 amplitude, targets vs standards, effect size d” value ([1]; 120 mg, fed, p = 0.25) was 0.85, the “Mean amplitude over the parietal cortex, Auditory Oddball, Standard trials” value ([1]; SAD study, 60 mg, Post-Drug) was 1.31 (1.02) µV and the “Mean amplitude over the parietal cortex, Auditory Oddball, Target trials” value ([1]; SAD study, 60 mg, Post-Drug) was 3.69 (1.83) µV. The “Mean amplitude over the parietal cortex, Auditory Oddball, Standard trials” value ([1]; SAD study, 60 mg, Pre-Drug) was 1.23 (0.96) µV, the “Mean amplitude over the parietal cortex, Auditory Oddball, Target trials” value ([1]; SAD study, 60 mg, Pre-Drug) was 2.0 (1.32) µV and the “Mean amplitude over the parietal cortex, Auditory Oddball, Standard trials” value ([1]; SAD study, 120 mg, Post-Drug) was 0.85 (1.41) µV. The “Mean amplitude over the parietal cortex, Auditory Oddball, Target trials” value ([1]; SAD study, 120 mg, Post-Drug) was 3.18 (1.24) µV, the “Mean amplitude over the parietal cortex, Auditory Oddball, Standard trials” value ([1]; SAD study, 120 mg, Pre-Drug) was 1.83 (1.04) µV and the “Mean amplitude over the parietal cortex, Auditory Oddball, Target trials” value ([1]; SAD study, 120 mg, Pre-Drug) was 3.23 (1.85) µV. The “Mean amplitude over the parietal cortex, Auditory Oddball, Standard trials” value ([1]; SAD study, 240 mg, Post-Drug) was 1.04 (1.54) µV, the “Mean amplitude over the parietal cortex, Auditory Oddball, Target trials” value ([1]; SAD study, 240 mg, Post-Drug) was 2.42 (1.53) µV and the “Mean amplitude over the parietal cortex, Auditory Oddball, Standard trials” value ([1]; SAD study, 240 mg, Pre-Drug) was 1.34 (1.02) µV. The “Mean amplitude over the parietal cortex, Auditory Oddball, Target trials” value ([1]; SAD study, 240 mg, Pre-Drug) was 2.94 (1.57) µV, the “Mean amplitude over the parietal cortex, Auditory Oddball, Standard trials” value ([1]; SAD study, 400 mg, Post-Drug) was 0.48 (0.92) µV and the “Mean amplitude over the parietal cortex, Auditory Oddball, Target trials” value ([1]; SAD study, 400 mg, Post-Drug) was 2.12 (0.34) µV. The “Mean amplitude over the parietal cortex, Auditory Oddball, Standard trials” value ([1]; SAD study, 400 mg, Pre-Drug) was 0.66 (1.09) µV, the “Mean amplitude over the parietal cortex, Auditory Oddball, Target trials” value ([1]; SAD study, 400 mg, Pre-Drug) was 1.7 (0.67) µV and the “Mean amplitude over the parietal cortex, Auditory Oddball, Standard trials” value ([1]; SAD study, 600 mg, Post-Drug) was 1.84 (1.22) µV. For the same compound, the “Mean amplitude over the parietal cortex, Auditory Oddball, Target trials” value ([1]; SAD study, 600 mg, Post-Drug) was 4.31 (2.13) µV, the “Mean amplitude over the parietal cortex, Auditory Oddball, Standard trials” value ([1]; SAD study, 600 mg, Pre-Drug) was 0.74 (1.24) µV and the “Mean amplitude over the parietal cortex, Auditory Oddball, Target trials” value ([1]; SAD study, 600 mg, Pre-Drug) was 3.08 (2.61) µV. For the same compound, the “Mean amplitude over the parietal cortex, Auditory Oddball, Standard trials” value [1, 4] was 1.17 (1.66) µV, the “Mean amplitude over the parietal cortex, Auditory Oddball, Target trials” value [1, 4] was 2.56 (2.38) µV and the “Mean amplitude over the parietal cortex, Auditory Oddball, Standard trials” value [1, 5] was 1.09 (1.78) µV. The “Mean amplitude over the parietal cortex, Auditory Oddball, Target trials” value [1, 5] was 2.11 (2.11) µV, the “Mean amplitude over the parietal cortex, Auditory Oddball, Standard trials” value [1, 6] was -0.07 (0.96) µV and the “Mean amplitude over the parietal cortex, Auditory Oddball, Target trials” value [1, 6] was 0.8 (1.11) µV. For the same compound, the “Mean amplitude over the parietal cortex, Auditory Oddball, Standard trials” value [1, 7] was 0.51 (1.65) µV, the “Mean amplitude over the parietal cortex, Auditory Oddball, Target trials” value [1, 7] was 2.32 (1.46) µV and the “ALT and AST levels” value [2] was “moderate increase in ALT and AST levels reported by one participant”. For the same compound, the “TEAEs, VU319 vs placebo (Fisher's Exact Tests)” value ([3]; in vivo) was “did not show a significant difference”, the “number of TEAEs across the 5 active dose cohorts” value ([3]; in vivo) was 33 and the “serious TEAEs, deaths, discontinuations” value ([3]; single oral doses 60-600 mg) was “No TEAE was rated as serious; also recorded: no serious TEAEs or discontinuations occurred; also recorded: no deaths, serious TEAEs, or TEAEs leading to discontinuation”. For the same compound, the tolerability ([3]; single oral doses 60 to 600 mg, healthy volunteers aged 18-55) was “Tolerability was good; also recorded: generally well tolerated” and the “maximum tolerated dose (MTD)” value ([3]; single oral doses up to 600 mg) was “not achieved”.
